# Counter-ions that a name gives are not always drawn.
# Columns and labels:
# [1] = Visual/microscopic observation of matrix films for drug crystals after preparation and on storage (physical stability); format: physicochemical; conditions: for Drug crystals in dried films: organic solvent-based adhesives MA-24, DUROTAK 2979
# Procedure: As used herein, “physical stability” of a drug in a matrix patch includes the lack of recrystallization of the drug in the dried adhesive layer of the patch.
# Pressure sensitive adhesive matrix systems described herein were prepared as follows. First, the solids content of a water-based or solvent-based adhesive in liquid form was determined by placing a known weight of liquid in a weighed aluminum dish and evaporating the solvents overnight in a 70° C. convection oven. The content of solid adhesive in the liquid was calculated by dividing the adhesive solid weight after drying by the initial total liquid weight. In some cases, the polyisobutylene (PIB) adhesives were prepared from polyisobutylene solids. The solid PIB was first dissolved in heptane to achieve a final solid content of about 30% by weight, and then the exact solid content was determined as described above. Next, a weighed quantity of adhesive liquid was added to a glass bottle, and the solid adhesive weight was calculated from the known solid fraction of the given adhesive liquid. The drug substance (hydrophilic salt or free drug form) was weighed and added to the adhesive solution in a quantity necessary to achieve a selected dry matrix film composition. The liquid containing the adhesive polymer drug substance was then mixed overnight. […] After mixing, approximately 8 ml of the solution was dispensed on a silanized polyester release liner and film cast using a casting knife with a gap size appropriate to achieve a final dried thickness of approximately 0.05-0.1 mm. The cast was dried in a 70° C. convection oven for 15-30 minutes to yield a dried matrix onto which an 0.08 mm thick polyethylene backing film was laminated. These matrix systems were then used to conduct in vitro skin flux experiments as described below. […]
# The systems manufactured with the salt and the water-based adhesive dispersions were stored at room temperature and examined using optical microscopy at 100× magnification for the presence of drug crystals.
# [2] = Dissolution of drug substance in liquid adhesive or solvent during matrix preparation; format: physicochemical; conditions: for Dissolution in organic solvent-based adhesives / Dissolution in water-based adhesive dispersions: Example 1, 5% (w/w) in dried film; for Dissolution in organic solvent-based adhesives: MA-24, DUROTAK 2979; for Dissolution in water-based adhesive dispersions: PIB-500, NACOR 72-9965
# Procedure: Pressure sensitive adhesive matrix systems described herein were prepared as follows. First, the solids content of a water-based or solvent-based adhesive in liquid form was determined by placing a known weight of liquid in a weighed aluminum dish and evaporating the solvents overnight in a 70° C. convection oven. The content of solid adhesive in the liquid was calculated by dividing the adhesive solid weight after drying by the initial total liquid weight. In some cases, the polyisobutylene (PIB) adhesives were prepared from polyisobutylene solids. […] Next, a weighed quantity of adhesive liquid was added to a glass bottle, and the solid adhesive weight was calculated from the known solid fraction of the given adhesive liquid. The drug substance (hydrophilic salt or free drug form) was weighed and added to the adhesive solution in a quantity necessary to achieve a selected dry matrix film composition. The liquid containing the adhesive polymer drug substance was then mixed overnight. […] The cast was dried in a 70° C. convection oven for 15-30 minutes to yield a dried matrix onto which an 0.08 mm thick polyethylene backing film was laminated. These matrix systems were then used to conduct in vitro skin flux experiments as described below.
# [3] = In vitro skin flux, modified Franz non-jacketed diffusion cells; format: in vitro ADME, human; conditions: Example 6, DURO-TAK 2852 patch
# Procedure: In vitro skin flux studies were conducted using human cadaver epidermal membrane in modified Franz non-jacketed diffusion cells. […] This method involves the exposure of the fullthickness skin to water at 60° C. for 60 seconds. After this period, the epidermal membrane was gently peeled from the dermis and stored in aluminum foil at −5 ° C. Prior to skin permeation experiments, the silanized release liner was removed from the adhesive matrix system, and the adhesive was affixed to the stratum corneum side of the thawed epidermal membrane, which was then cut to an appropriate size and placed between the two halves of the diffusion cell with the stratum corneum facing the donor compartment.
# The receiver compartment was filled with water or an aqueous buffer appropriate to maintain sink conditions for the drug. All receiver media included 0.02% (w/w) sodium azide to inhibit bacterial growth. The diffusion cell was placed in a temperature controlled circulating water bath calibrated to maintain the surface temperature of the skin at 32° C. The receiver compartment was constantly stirred by a magnetic stir bar in the receiver compartment agitated by a magnetic stirring module placed under the water bath. At predetermined sampling intervals, the entire contents of the receiver compartment were collected for drug quantitation, and the receiver compartment was filled with fresh receiver solution, taking care to eliminate any air bubbles at the skin/solution interface.
# The cumulative amount of drug permeated per unit area at any time t (Qt, μg/cm^2) was determined according to the following equation: [formula]
# where Ct (μg/cm^3) is the concentration of the receiver compartment at sample time t (hours), V is the volume of the receiver compartment of the diffusion cell (6.3 cm^3), and A is the diffusional area of the cell (0.64 cm^2).
# [4] = 5% (w/w) drug in Lord PIB-500 (water-based PIB) matrix, room temperature, microscopic
# [5] = Example 2, NACOR 72-9965, 1% or 2% (w/w)
# [6] = Example 2, TSR and DURO-TAK 2516, 1% or 2% (w/w)
# [7] = Example 7, TSR, equivalent to 1% or 2% (w/w) diclofenac sodium
# [8] = Example 5, NACOR 72-9965, 1% (w/w)
# [9] = Example 5, TSR, equivalent to 1% (w/w) tromethamine salt
# [10] = Example 8, Nacor 72-9965 with 5.0% Kollidon 90F, 12%
molecule,measurement,setting,value
"CC(C)(C)NCC(O)c1ccc(O)c(CO)c1 (stereo not drawn) [Albuterol Free Base, albuterol]",Observations: drug crystals,"[1]; 10% (w/w) in TSR (organic solvent-based acrylic), 59 weeks of storage at 40° C./75% RH, microscopic",Crystals were observed
"O=C1CC2(CCCC2)CC(=O)N1CCCCN1CCN(c2ncccn2)CC1 [Buspirone Free Base, buspirone]",Dissolution in organic solvent-based adhesives,[2],dissolved readily
same,Dissolution in water-based adhesive dispersions,[2],water insoluble
same,Observations: crystals form within,[1]; [4],Crystals form within 3 days
same,Observations: crystals form within,"[1]; 5% (w/w) drug in MA-24 (organic solvent-based PIB) matrix, room temperature, microscopic",Crystals form within 11 days
same,Drug crystals in dried films,"[1]; Example 1, 5% (w/w)",visibly homogeneous and free from drug crystals
same,Recrystallization of buspirone in laminate,"[1]; PIB adhesive (MA-24)/buspirone free base/isocetyl alcohol 86/1.5/12.5% (w/w), room temperature and 40° C./70%RH for 3 weeks, microscopic",No recrystallization of buspirone occurred
"O=C1CC2(CCCC2)CC(=O)N1CCCCN1CCN(c2ncccn2)CC1 [Buspirone HCl, buspirone hydrochloride]",Dissolution in organic solvent-based adhesives,[2]; hydrochloride,did not dissolve
same,Dissolution in water-based adhesive dispersions,[2]; hydrochloride,dissolved readily
same,Dissolution in water-based adhesive dispersion,[2]; [5],dissolved completely
same,Dissolution in organic solvents of solvent-based adhesives,[2]; [6],did not dissolve completely
same,Dissolution in acetone,"[2]; Example 3, 0.70 g in 9.2 g acetone",did not completely dissolve
same,Dissolution in acetone/isocetyl alcohol mixture,"[2]; Example 3, 0.70 g, 9.2 g acetone, 6.1 g isocetyl alcohol",did not completely dissolve
same,Dissolution in acetone/isocetyl alcohol/PIB adhesive mixture,"[2]; Example 3, blended with MA-24 organic solvent-based PIB adhesive",did not completely dissolve
same,Results: dissolution in solvent and in solvent/isocetyl alcohol/PIB adhesive mixture,"[2]; Table 6, Acetone 12.0 g, 0.7 g drug",Buspirone hydrochloride (0.7 g) did not dissolve in
same,Results: effect of addition of solvent solution PIB adhesive,"[2]; Table 6, Chloroform","resulted in precipitation of buspirone, and the resulting"
same,Results: dissolution in solvent and solvent/isocetyl alcohol mixture,"[2]; Table 6, Chloroform 12.0 g, 0.7 g drug",Buspirone hydrochloride (0.7 g) dissolved in chloroform
same,Results: dissolution in solvent and in solvent/isocetyl alcohol/PIB adhesive mixture,"[2]; Table 6, Ethyl acetate 12.0 g, 0.7 g drug",Buspirone hydrochloride (0.7 g) did not dissolve in
same,Results: behaviour of solvent/isocetyl alcohol/PIB adhesive mixture,"[2]; Table 6, Methanol",phase separated
same,Results: dissolution in solvent,"[2]; Table 6, Methanol 12.0 g, 0.7 g drug",Buspirone hydrochloride (0.7 g) dissolved in methanol
same,Results: dissolution in solvent and in solvent/isocetyl alcohol/PIB adhesive mixture,"[2]; Table 6, Toluene 12.0 g, 0.7 g drug",Buspirone hydrochloride (0.7 g) did not dissolve in
same,Results: behaviour of solvent/isocetyl alcohol/adhesive solution,"[2]; Table 6, Water",phase separated. The resulting cast contained distinct
same,Results: dissolution in solvent,"[2]; Table 6, Water 1.5 g, 0.7 g drug",Buspirone hydrochloride (0.7 g) dissolved in water
same,Observations: no crystals observed after,[1]; [4],No crystals observed after 7 weeks
same,Observations: drug crystals,"[1]; 5% (w/w) drug in MA-24 (organic solvent-based PIB) matrix, immediately after preparation",crystals present
same,Drug crystals in dried films,"[1]; Example 1, 5% (w/w), hydrochloride",filled with drug crystals
same,Drug crystals in dried film,"[1]; Example 1, water-based adhesive dispersions PIB-500, NACOR 72-9965, 5% (w/w)",no crystals were found
same,Drug crystals in dried adhesive matrix,[1]; [5],visibly free of drug crystals
same,Drug crystals in final dried casts,[1]; [6],contained visible solid drug crystals
same,Drug crystals in laminate,"[1]; PIB adhesive (MA-24)/buspirone hydrochloride/isocetyl alcohol 86/1.5/12.5% (w/w), naked eye and microscopic",filled with buspirone crystals
same,Results: buspirone crystals in resulting cast,"[1]; Table 6, Chloroform",cast contained extensive buspirone crystals.
same,Results: buspirone crystals in resulting cast,"[1]; Table 6, Ethyl acetate",resulting cast contained extensive buspirone crystals.
same,Results: casting of mixture,"[1]; Table 6, Methanol, adhesive formed a gel-like ball",impossible to cast
same,Results: buspirone crystals in resulting cast,"[1]; Table 6, Toluene",contained extensive buspirone crystals.
same,Results: buspirone crystallization in resulting cast,"[1]; Table 6, Water, buspirone only in water-rich phase",extensively within 24 hours after casting.
"CC(=O)CC(c1ccccc1)c1c(O)c2ccccc2oc1=O (stereo not drawn) [Warfarin free drug, warfarin]",Dissolution in organic solvents,"[2]; Example 8, TSR, 12% (w/w)",dissolved readily
same,Drug crystals in dry film,"[1]; Example 8, TSR, 12% (w/w), visible and microscopic",free from drug crystals
Clc1cccc(Cl)c1N=C1NCCN1 [clonidine HCl],Drug crystals in dried matrix,"[1]; Example 10, water-based PIB 500/BUTYL 100 (Lord), 2% (w/w)",visibly free of drug crystals
"Clc1cccc(Cl)c1N=C1NCCN1 [clonidine free base, clonidine]",Dissolution in organic solvent solution,"[2]; Example 10, VISTANEX MM L-100/LM-MH PIB blend in organic solvents, equivalent to 2% (w/w) HCl salt",dissolved readily
same,Drug crystals in dry matrix film,"[1]; Example 10, VISTANEX MM L-100/LM-MH PIB blend, equivalent to 2% (w/w) HCl salt",free from drug crystals
"O=C(O)Cc1ccccc1Nc1c(Cl)cccc1Cl [diclofenac free acid, diclofenac]",Dissolution in organic solvent system,[2]; [7],completely dissolved
same,Drug crystals in dried matrix,[1]; [7],visually free of drug crystals
O=C(O)Cc1ccccc1Nc1c(Cl)cccc1Cl [diclofenac sodium],Dissolution in organic solvent system,[2]; [7],not sufficiently soluble
same,Drug crystals in dried matrix,[1]; [7],contained crystallized drug
same,Drug crystals in dried matrices,"[1]; Example 7, water-based NACOR 72-9965 and ROBOND PS20, 1% or 2% (w/w)",physically stable and visually free of drug crystals
O=C(c1ccccc1)c1ccc2n1CCC2C(=O)O (stereo not drawn) [ketorolac tromethamine],Average cumulative amount of ketorolac released after 24 hours,"[3]; 10% ketorolac on free acid basis, 8% enhancer (propylene glycol/isopropyl myristate)",171.6±49.0 μg/cm^2
same,In vitro skin flux of ketorolac,"[3]; 10% ketorolac on free acid basis, 8% enhancer (propylene glycol/isopropyl myristate), Mean±SD, n=2/10 skins/diffusion cells",7.5±2.2 μg/cm^2/h
same,Ketorolac flux as % of the flux observed with the system prepared with the free acid,[3]; 14.9% ketorolac tromethamine,30%
same,Dissolution in water/emulsion system,[2]; [8],dissolved completely
same,Dissolution in organic solvent system,[2]; [9],did not completely dissolve
same,Dissolution in enhancer-acrylic adhesive solution,"[2]; Example 6, DURO-TAK 2852 with propylene glycol/isopropyl myristate, 10% ketorolac on free acid basis",does not dissolve
same,Drug crystals in dried matrix,[1]; [8],free of drug crystals
same,Drug crystals in dried matrix,[1]; [9],contained crystallized drug
same,Drug crystals in adhesive matrix/laminate,"[1]; Example 6, DURO-TAK 2852 with propylene glycol/isopropyl myristate, 10% ketorolac on free acid basis, visual and microscopic",visibly cloudy and extensive crystals were visible
CCN(CC)CC(=O)Nc1c(C)cccc1C [lidocaine HCl],Drug crystals in dried matrix,"[1]; Example 9, DURO-TAK 2516, equivalent to 1% (w/w) HCl salt, HCl",contains visible solid drug crystals
same,Drug crystals in dried matrix,"[1]; Example 9, NACOR 72-9965, 1% (w/w)",physically stable and free of drug crystals
"CCN(CC)CC(=O)Nc1c(C)cccc1C [lidocaine free base, lidocaine]",Drug crystals in dried matrix,"[1]; Example 9, DURO-TAK 2516, equivalent to 1% (w/w) HCl salt",visibly free of drug crystals
"CC(=O)CC(c1ccccc1)c1c(O)c2ccccc2oc1=O (stereo not drawn) [sodium warfarin, warfarin sodium]",Dissolution in water-based dispersion,[2]; [10],dissolved readily
same,Drug crystals in dry matrix,[1]; [10],free from visible and microscopic drug crystals
albuterol sulfate,Observations: drug crystals,"[1]; 10% (w/w) in NACOR 9965 (water-based acrylic) with 5% KOLLIDON 90F, 59 weeks of storage at 40° C./75% RH, microscopic",No crystals were observed

# From US6365178B1, “Method of making pressure sensitive adhesive matrix patches for transdermal drug delivery using hydrophilic salts of drugs and hydrophobic pressure sensitive adhesive dispersions” (priority 1996, dated 2002)
